Test results from the supplement of paper PMC4862054.

Legend:
Conditions in all cases: incubation time: 72 h
HDQ-P1 [1] = experiment: drug sensitivity score (DSS), CellTiter-Glo (DSS (AUC-based score)); higher = stronger drug effect (viability inhibition or cytotoxicity); extreme values may be limits of the assay
Method in brief: (§1)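 Breast cancer cells were seeded into 384-well plates containing compound at 5 concentrations in 10-fold steps over a compound-specific 10,000-fold range and incubated 72 h. After CellTox Green and CellTiter-Glo readings, each plate was normalised to 0.1 % DMSO and a positive kill control. The drug sensitivity score rests on the area under the fitted dose-response curve.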

CAL-51 = experiment: as above
Method in brief: as §1

MDA-MB-436 [2] = experiment: as above
Method in brief: as §1

BT-474 [3] = experiment: as above
Method in brief: as §1

SK-BR-3 = experiment: as above
Method in brief: as §1

MDA-MB-453 [4] = experiment: as above
Method in brief: as §1

MFM-223 [5] = experiment: as above
Method in brief: as §1

MCF-10A = experiment: as above
Method in brief: as §1

BT-549 [6] = experiment: as above
Method in brief: as §1

Hs578T [7] = experiment: as above
Method in brief: as §1

CAL-85-1 = experiment: as above
Method in brief: as §1

HCC1937 = experiment: as above
Method in brief: as §1

MDA-MB-468 = experiment: as above
Method in brief: as §1

DU-4475 = experiment: as above
Method in brief: as §1

MDA-MB-231 = experiment: as above
Method in brief: as §1

CAL-120 [8] = experiment: as above
Method in brief: as §1

HCC1143 = experiment: as above
Method in brief: as §1

HDQ-P1 [9] = experiment: drug sensitivity score (DSS), CellTox Green (DSS (AUC-based score)); higher = stronger drug effect (viability inhibition or cytotoxicity); extreme values may be limits of the assay
Method in brief: as §1

BT-474 [10] = experiment: as above
Method in brief: as §1

MDA-MB-453 [11] = experiment: as above
Method in brief: as §1

MFM-223 [12] = experiment: as above
Method in brief: as §1

BT-549 [13] = experiment: as above
Method in brief: as §1

Hs578T [14] = experiment: as above
Method in brief: as §1

HCC1599 = experiment: as above
Method in brief: as §1

CAL-120 [15] = experiment: as above
Method in brief: as §1

CAL-148 = experiment: as above
Method in brief: as §1

MDA-MB-436 [16] = experiment: as above
Method in brief: as §1

Compound	drug sensitivity score (HDQ-P1 [1])	drug sensitivity score (CAL-51)	drug sensitivity score (MDA-MB-436 [2])	drug sensitivity score (BT-474 [3])	drug sensitivity score (SK-BR-3)	drug sensitivity score (MDA-MB-453 [4])	drug sensitivity score (MFM-223 [5])	drug sensitivity score (MCF-10A)	drug sensitivity score (BT-549 [6])	drug sensitivity score (Hs578T [7])	drug sensitivity score (CAL-85-1)	drug sensitivity score (HCC1937)	drug sensitivity score (MDA-MB-468)	drug sensitivity score (DU-4475)	drug sensitivity score (MDA-MB-231)	drug sensitivity score (CAL-120 [8])	drug sensitivity score (HCC1143)	drug sensitivity score (HDQ-P1 [9])	drug sensitivity score (BT-474 [10])	drug sensitivity score (MDA-MB-453 [11])	drug sensitivity score (MFM-223 [12])	drug sensitivity score (BT-549 [13])	drug sensitivity score (Hs578T [14])	drug sensitivity score (HCC1599)	drug sensitivity score (CAL-120 [15])	drug sensitivity score (CAL-148)	drug sensitivity score (MDA-MB-436 [16])
O=P1(NCCCl)OCCCN1CCCl (centres undefined) [Ifosfamide]	0	0	0	0.0144	0	0	0	0	0	0	0	0	0	0	0	0	0	0	0	0	0	0.736	0	0	0	0	
Clc1ccc(Nc2nnc(Cc3ccncc3)c3ccccc23)cc1 [Vatalanib]	0	0	0	0	0	0	0	0	0	0	0	0	0	0	0	0	0	0	0	0	0	0	0	0	0	1.43	0
N#CCNC(=O)c1ccc(-c2ccnc(Nc3ccc(N4CCOCC4)cc3)n2)cc1 [Momelotinib]	0	0	0	4.25	2.75	0	0	5.18	6.02	4.38	4.3	0	5.4	0	4.43	5.07	1.42	0	0	0	0	2.78	0	0	0	0	0
O=C(O)c1ccc(-c2c[nH]c3ncc(-c4ccccc4)cc23)cc1C1CCCC1	0	0	0	0.507	2.12	0	0	0	0	0.128	0	0	0	0	0	0	0	0	0	0	1.51	0	0	0	0	0	0
N[C@@H](CSC(c1ccccc1)(c1ccccc1)c1ccccc1)C(=O)O [S-trityl-L-cysteine]	0	0	0	0	0	0	0	0	0	0	0	0	0	0	0	0	0	0	0	0	0	0	0	0	0	0	0
NC(=O)Nc1cc(-c2cccc(F)c2)sc1C(=O)N[C@H]1CCCNC1 [AZD7762]	3.06	1.07	5.18	4.13	3.78	5.03	0	3.48	8.18	3.86	9.45	2.78	1.93	0	5.67	2.9	4.03	0	0	0	0	0	17.4	0	0	0	0
C=C(c1ccc(C(=O)O)cc1)c1cc2c(cc1C)C(C)(C)CCC2(C)C [Bexarotene]	0	0	0	1.51	2.44	0	0	0	0	0	0	0	0	0	0	0	0	0	0	0	0	0		0	0	0	0
C[C@]12CC[C@@H]3c4ccc(O)cc4C[C@@H](CCCCCCCCC[S+]([O-])CCCC(F)(F)C(F)(F)F)[C@H]3[C@@H]1CC[C@@H]2O (some centres undefined) [Fulvestrant]	0	0	0	0	0	0	0	0	0	0	0	0	0	0	0	0	0	0	0	0	0	0	0	0	0	0	0
C[C@@H](Oc1cc(-c2cnn(C3CCNCC3)c2)cnc1N)c1c(Cl)ccc(F)c1Cl [Crizotinib]	0	0	0	0	0	0	0	0	0	0	0	0	0.0242	0	0	0	0	0.784	0	0	0	0	0	0	0	0	
Cc1ccc(C(=O)N(CCCN)[C@@H](c2oc3cc(Cl)ccc3c(=O)c2Cc2ccccc2)C(C)C)cc1	0	9.66	0	0	0	0	0	0	0	0	0	0	0	0	0	0	0		0	0	0	0	2.03	0	0	0	0
O=C1CCC(N2C(=O)c3ccccc3C2=O)C(=O)N1 (centres undefined) [Thalidomide]	0	0	0	0	0	0	0	0	0	0	0	0	0	0	0	0	0		0	0	0	0	0	0	0	1.58	4.46
CC(C)Cn1cnc2c(N)nc3ccccc3c21 [Imiquimod]	0	0	0	0	0	0	0	0	0	0	0	0	0	0	0	0	0	1.63	0	0	0	0.506		0	0	0	0
Cn1c(CCCC(=O)O)nc2cc(N(CCCl)CCCl)ccc21 [Bendamustine]	0	0	0	0	0	0	0	0	0	0	0	0	0	0	0	0	0	0	0	0	0	0		0	0	0	0
